Experimental findings from patent US7193079B1 (Board of Trustees of Michigan State University, priority 2003, dated 2007) are described below.

Test [1] deals with IL-2 production. As to the kind of experiment: Inhibition of IL-2 production measured by competitive EIA in PMA/PHA-activated Jurkat T cells. The format is cell-based, human. To be noted: PMA/PHA-activated Jurkat T cells, EIA, means of two experiments, standard deviation in parentheses. As for the experimental part:
(§1) Exposure of human Jurkat leukemia T-cells to phorbol myristate acetate (PMA/PHA) and THP-1 cells to lipopolysaccharide (LPS), activates NF-κB mediated gene transcription of several pro-inflammatory cytokines, including IL-2, IL-6, IL-8 and TNF-α (Baldwin, Ann. Rev. Immunol. 14: 649–683 (1996); Grilli et al., Int. Rev. Cytol. 143: 1–62 (1993)). […] The inhibition of IL-2 was evaluated in Jurkat cells after PMA/PHA activation (Mahon and O'Neill, J. Biol. Chem. 270: 28557–28564 (1995); Lindgren et al., Molec. Immunol. 38V 267–277 (2001)). The inhibition of TNF-α was evaluated in THP-1 cells after LPS activation (Aikawa et al., Inflamm. Res. 51: 188–194 (2002)). […] After 24 hours, the cell free supernatant fractions were collected and subjected to EIA for the quantification of total IL-2 production.
To each well of a flat bottomed 96 well culture plate 0.2 mL 1×10^6 Jurkat E6-1 cells/mL were added. Each sample was then treated in duplicate with the compounds in DMSO at either 10 μM, 1 μM, 0.1 μM or 10 ηM and allowed to incubate for thirty minutes at 37° C., 5% CO2. Cell free supernatant fractions were collected from stimulated cultures incubated for 24 hr at 37° C., 5% CO2. Cultures were stimulated with phytohemagglutinin (PHA, Sigma-Aldrich, St. Louis, Mo.) at 1 μg/mL; and phorbol myristate acetate (PMA, Sigma-Aldrich, St. Louis, Mo.) at 50 ng/mL. The concentration of IL-2 in each sample was then measured using a competitive enzyme immunoassay (Neogen Corporation, Lansing, Mich.) according to the manufacturer's protocol. Known IL-2 concentrations were plotted and fit a 4 parameter logistic curve. Unknown concentrations were then extrapolated from the standard curve.

The subject of test [2] is TNF-α production. In words: Inhibition of TNF-α production measured by competitive EIA in LPS stimulated THP-1 cells. The test is classed as cell-based, human. To be noted: EIA, 3 hr incubation, means of two experiments, standard deviation in parentheses. As for the experimental part:
as §1
The assay measured the ability of the compounds to inhibit TNF-α production in LPS stimulated THP-1 cells (Aikawa et al., Inflamm. Res. 51V 188–194 (2002)).
THP-1 cells are grown in RPMI-1640 Media (Gibco-BRL, Rockville, Md.) supplemented with 5% fetal bovine serum, penicillin (614 ηg/mL), streptomycin (10 μg/mL) and HEPES buffer, pH 7.2 at 37° C., 5% CO2. To each well of a flat bottomed 96 well culture plate 0.2 mL 1×10^6 THP-1 cells/mL were added. Each sample was then treated in duplicate with the compounds in DMSO at either 10 μM, 1 μM, 0.1 μM or 10 ηM and allowed to incubate for thirty minutes at 37° C., 5% CO2. Cell free supernatant fractions were collected from stimulated cultures incubated for 3 hr at 37° C., 5% CO2. Cultures were stimulated with LPS (Sigma-Aldrich, St. Louis, Mo.) at 1 μg/mL. The concentration of TNF-α in each sample was then measured using a competitive enzyme immunoassay (Neogen Corporation, Lansing, Mich.) according to the manufacturer's protocol. To make a standard curve, known TNF-α concentrations were plotted and fitted to a 4 parameter logistic curve. Unknown concentrations were then extrapolated from the standard curve.

Test [3] concerns CEM leukemia cells. As to the kind of experiment: Inhibition of cell growth in CEM leukemia cells (trypan blue counting). The test is classed as cell-based. To be noted: 48 hour, means of two experiments, standard deviation in parentheses. How it is done: Cells were treated at different concentrations ranging from 10 ηM to 5 μM concentrations over a 48 hour time period.
CEM cells (CCRF-CEM; ATCC No. CCL-119, American Type Culture Collection, Manassas, Va.) were grown in RPMI-1640 Media (Gibco-BRL, Rockville, Md.) supplemented with 10% Fetal Bovine Serum, penicillin (614 r1 g/mL), streptomycin (10 μg/mL) and HEPES buffer, pH 7.2 at 37° C., 5% CO2. DMSO was used as the vector for all drugs and added in the control experiments. Cell cultures were then treated with 10 μM, 1 μM, 0.1 μM or 10 ηM of the drug in duplicate and allowed to incubate at 37° C., 5% CO2. Cells were stained with 4% trypan blue solution in PBS, and counted under the microscope (Thomas Scientific, Fisher Scientific) in duplicate. This was repeated for Oh, 2 h, 6 h, 12 h, 24 h, and 48 h. The data points obtained were then plotted and a point-to-point curve was drawn to determine the effect of the drug on the cells.

In test [4] the test system is CDK1. In words: Inhibition of CDK1 (method of Meijer et al.). The format is biochemical. The source says:
The inhibitory activity of compound 3 was less pronounced.

Test [5] deals with GSK-3β (Homo sapiens, UniProt P49841). In words: Inhibition of GSK-3β (method of Meijer et al.). The test is classed as biochemical.
Chain of GSK-3β (P49841 whole entry, species assumed): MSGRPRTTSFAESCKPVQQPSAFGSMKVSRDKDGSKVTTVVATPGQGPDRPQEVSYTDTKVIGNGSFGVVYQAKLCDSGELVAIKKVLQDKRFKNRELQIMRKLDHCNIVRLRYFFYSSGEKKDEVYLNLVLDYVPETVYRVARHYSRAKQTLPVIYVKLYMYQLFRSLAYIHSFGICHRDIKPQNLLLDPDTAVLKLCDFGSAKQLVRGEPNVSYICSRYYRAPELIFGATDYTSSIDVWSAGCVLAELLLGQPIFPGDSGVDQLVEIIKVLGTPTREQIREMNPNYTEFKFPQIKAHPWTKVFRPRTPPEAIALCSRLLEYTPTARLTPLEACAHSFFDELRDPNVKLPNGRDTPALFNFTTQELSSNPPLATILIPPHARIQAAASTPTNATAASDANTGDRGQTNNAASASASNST
Test [6] concerns the target T1, CK1δ (h) (Homo sapiens, UniProt P48730).
T1 construct: purchased Upstate, UK (Kinase Profiler service)
In words: Upstate Kinase Profiler in vitro kinase assay, CK1δ. The test is classed as biochemical. To be noted: 10 μM ATP. How it is done: (§2) The potent inhibitory activity of the indoloazepines against checkpoint kinases Chk1 and Chk2 was determined. In vitro kinase Assay: Compound 2 was tested in vitro against the kinases indicated by Upstate, UK using a Kinase Profiler Assay according to the manufacturer's protocol. Briefly, in a final volume of 25 μl, the kinase was incubated with the desired buffer and the required polypeptide substrate, in presence of 10 mM magnesium acetate and γ-^33P-ATP (10 μM). After incubation for 40 minutes at room temperature, the reaction was stopped by the addition of 3% H3PO4 (5 μl). A 10 μl of the reaction was then spotted on a P30 filtermat and washed 3× in 75 mM H3PO4 and finally in methanol. Samples were then dried and signals counted on a scintillation counter. […] The results are shown in FIGS. 8 and 9 for CHK1 and CHK2.

The target of test [7] is T2, CK2 (h) (Homo sapiens, UniProt P68400).
T2 construct: purchased Upstate, UK (Kinase Profiler service)
T2 sequence (P68400 whole entry): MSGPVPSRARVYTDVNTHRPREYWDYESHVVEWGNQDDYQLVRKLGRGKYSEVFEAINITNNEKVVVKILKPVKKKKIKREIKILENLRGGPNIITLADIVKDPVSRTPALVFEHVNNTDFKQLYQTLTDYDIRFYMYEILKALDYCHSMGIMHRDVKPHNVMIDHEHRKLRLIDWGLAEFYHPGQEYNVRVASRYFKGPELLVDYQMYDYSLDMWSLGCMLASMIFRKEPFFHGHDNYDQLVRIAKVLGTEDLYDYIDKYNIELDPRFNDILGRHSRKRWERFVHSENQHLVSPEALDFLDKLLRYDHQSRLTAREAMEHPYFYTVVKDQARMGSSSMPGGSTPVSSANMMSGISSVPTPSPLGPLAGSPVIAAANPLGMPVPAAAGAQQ
T2 sequence (P67870 whole entry partner): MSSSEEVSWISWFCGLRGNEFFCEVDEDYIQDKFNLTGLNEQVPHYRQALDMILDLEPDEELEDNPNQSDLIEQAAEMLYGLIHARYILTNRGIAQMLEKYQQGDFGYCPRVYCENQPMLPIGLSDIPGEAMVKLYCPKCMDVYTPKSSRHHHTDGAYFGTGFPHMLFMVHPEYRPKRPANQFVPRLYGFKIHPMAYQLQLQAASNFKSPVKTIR
As to the kind of experiment: Upstate Kinase Profiler in vitro kinase assay, CK2. The format is biochemical. To be noted: 10 μM ATP. How it is done: as §2

Test [8] deals with T3, MEK1 (h) (Homo sapiens, UniProt Q02750).
T3 construct: purchased Upstate, UK (Kinase Profiler service)
T3 sequence (Q02750 whole entry): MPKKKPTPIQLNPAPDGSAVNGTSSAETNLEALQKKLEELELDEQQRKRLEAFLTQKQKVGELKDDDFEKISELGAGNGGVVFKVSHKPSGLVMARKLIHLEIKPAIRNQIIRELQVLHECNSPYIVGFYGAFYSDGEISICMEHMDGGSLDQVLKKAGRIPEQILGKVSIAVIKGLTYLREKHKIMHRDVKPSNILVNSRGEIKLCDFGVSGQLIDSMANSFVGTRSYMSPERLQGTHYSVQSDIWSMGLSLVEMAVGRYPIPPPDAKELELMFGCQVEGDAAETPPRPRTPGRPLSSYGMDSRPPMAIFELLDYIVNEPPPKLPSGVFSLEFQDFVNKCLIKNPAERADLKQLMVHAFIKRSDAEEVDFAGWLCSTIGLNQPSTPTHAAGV
As to the kind of experiment: Upstate Kinase Profiler in vitro kinase assay, MEK1. The format is biochemical. To be noted: 10 μM ATP. As for the experimental part:
as §2

Test [9] addresses T4, PKCα (h) (Homo sapiens, UniProt P17252).
T4 construct: purchased Upstate, UK (Kinase Profiler service)
As to the kind of experiment: Upstate Kinase Profiler in vitro kinase assay, PKCα. To be noted: 10 μM ATP. The format is biochemical. How it is done:
as §2

Test [10] deals with T5, PKCβII (h) (Homo sapiens, UniProt P05771).
T5 construct: purchased Upstate, UK (Kinase Profiler service)
T5 sequence (P05771 1-673 isoform P05771-2): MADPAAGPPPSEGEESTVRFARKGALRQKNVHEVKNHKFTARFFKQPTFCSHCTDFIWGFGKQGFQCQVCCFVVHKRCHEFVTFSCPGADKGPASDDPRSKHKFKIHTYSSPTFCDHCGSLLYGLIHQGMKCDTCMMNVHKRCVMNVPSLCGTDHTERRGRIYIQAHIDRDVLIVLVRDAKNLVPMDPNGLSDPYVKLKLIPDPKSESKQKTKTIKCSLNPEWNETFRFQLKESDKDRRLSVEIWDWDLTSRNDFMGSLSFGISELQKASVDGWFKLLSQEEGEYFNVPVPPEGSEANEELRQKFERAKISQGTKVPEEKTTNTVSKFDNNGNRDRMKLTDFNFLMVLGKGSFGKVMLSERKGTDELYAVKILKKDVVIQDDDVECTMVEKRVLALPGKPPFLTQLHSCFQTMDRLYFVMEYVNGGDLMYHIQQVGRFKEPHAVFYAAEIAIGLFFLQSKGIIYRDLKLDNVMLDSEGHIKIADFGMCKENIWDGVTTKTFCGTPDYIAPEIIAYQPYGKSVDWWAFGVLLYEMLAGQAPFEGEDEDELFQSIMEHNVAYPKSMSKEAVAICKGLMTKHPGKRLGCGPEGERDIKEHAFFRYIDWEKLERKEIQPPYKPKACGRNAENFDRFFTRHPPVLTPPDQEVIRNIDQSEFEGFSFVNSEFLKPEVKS
In words: Upstate Kinase Profiler in vitro kinase assay, PKCβII. To be noted: 10 μM ATP. The test is classed as biochemical. As for the experimental part: as §2

The target of test [11] is T6, CHK1 (Homo sapiens, UniProt O14757).
T6 sequence (O14757 1-476): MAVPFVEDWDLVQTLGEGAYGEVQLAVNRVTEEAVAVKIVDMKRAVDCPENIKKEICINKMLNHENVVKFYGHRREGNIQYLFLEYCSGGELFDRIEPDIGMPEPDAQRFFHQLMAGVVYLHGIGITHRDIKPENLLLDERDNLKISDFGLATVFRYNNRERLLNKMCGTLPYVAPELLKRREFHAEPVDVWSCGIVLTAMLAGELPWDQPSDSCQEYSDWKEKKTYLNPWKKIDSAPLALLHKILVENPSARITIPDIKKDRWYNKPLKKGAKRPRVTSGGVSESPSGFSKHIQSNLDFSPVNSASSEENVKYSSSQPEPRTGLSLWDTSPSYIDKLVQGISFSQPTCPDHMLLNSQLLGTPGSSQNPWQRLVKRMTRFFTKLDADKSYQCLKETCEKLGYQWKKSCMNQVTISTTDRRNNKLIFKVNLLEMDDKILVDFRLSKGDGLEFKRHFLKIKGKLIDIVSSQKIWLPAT
As to the kind of experiment: Upstate Kinase Profiler in vitro kinase assay, CHK1. The test is classed as biochemical. To be noted: 10 μM ATP. As for the experimental part: as §2, with “In” for “The potent inhibitory activity of the indoloazepines against checkpoint kinases Chk1 and Chk2 was determined. In”

Test [12] deals with T7, CHK2 (Homo sapiens, UniProt O96017).
T7 construct: purchased Upstate, UK (Kinase Profiler service)
T7 sequence (O96017 whole entry): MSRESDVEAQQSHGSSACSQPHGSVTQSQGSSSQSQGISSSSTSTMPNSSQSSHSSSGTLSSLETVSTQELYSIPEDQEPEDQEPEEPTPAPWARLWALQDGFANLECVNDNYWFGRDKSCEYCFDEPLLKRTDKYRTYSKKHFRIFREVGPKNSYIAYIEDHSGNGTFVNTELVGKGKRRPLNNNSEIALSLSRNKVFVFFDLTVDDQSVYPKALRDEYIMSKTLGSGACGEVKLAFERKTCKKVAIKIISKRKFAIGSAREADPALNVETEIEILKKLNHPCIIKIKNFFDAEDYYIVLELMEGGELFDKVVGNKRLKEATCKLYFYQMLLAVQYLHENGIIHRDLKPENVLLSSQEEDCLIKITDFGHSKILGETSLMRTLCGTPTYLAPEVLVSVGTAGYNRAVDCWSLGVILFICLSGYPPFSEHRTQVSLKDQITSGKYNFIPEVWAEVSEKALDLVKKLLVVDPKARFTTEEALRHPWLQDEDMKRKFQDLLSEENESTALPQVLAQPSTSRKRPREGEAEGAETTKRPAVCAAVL
As to the kind of experiment: Upstate Kinase Profiler in vitro kinase assay, CHK2. The format is biochemical. To be noted: 10 μM ATP. As for the experimental part: as §2, with “In” for “The potent inhibitory activity of the indoloazepines against checkpoint kinases Chk1 and Chk2 was determined. In”

By IC50 is commonly meant the concentration needed to halve the response being measured. Broadly, the GI50 is the concentration that inhibits growth by half.

Where only a bound is given, the exact number is not on record here.

T1 sequence (P48730 whole entry): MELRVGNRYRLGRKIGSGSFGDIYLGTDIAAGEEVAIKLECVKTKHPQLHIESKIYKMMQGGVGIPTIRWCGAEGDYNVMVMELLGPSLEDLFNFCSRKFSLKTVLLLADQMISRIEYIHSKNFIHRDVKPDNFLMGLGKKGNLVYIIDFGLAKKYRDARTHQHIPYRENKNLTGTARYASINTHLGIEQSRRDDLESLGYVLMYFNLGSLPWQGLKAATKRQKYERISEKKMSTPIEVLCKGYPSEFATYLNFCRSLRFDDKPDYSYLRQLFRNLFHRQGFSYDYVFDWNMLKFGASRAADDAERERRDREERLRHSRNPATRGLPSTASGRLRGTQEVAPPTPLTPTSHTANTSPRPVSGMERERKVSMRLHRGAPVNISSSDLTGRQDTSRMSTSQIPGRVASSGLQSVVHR

Consider `NC1=N/C(=C2/CCNC(=O)c3[nH]c4ccccc4c32)C(=O)N1` [Compound 2, 5-(2-amino-5-oxo-1,5-dihydro-imidazol-4-ylidene)-3,4,5,10-tetrahydro-2H-azepino[3,4-b]indol-1-one], for which the concentration for half-maximal inhibition (IC50) in [1] (Homo sapiens, Jurkat, 24 h) worked out at 3.5 µM; in [1] (24 hr), 3.55 µM; in [2], 8.16 µM; in test [2] (Homo sapiens, THP-1, 3 h) it was 8.2 µM; in test [4] it was 0.4 µM; in test [5] it was 0.15 µM. The half-maximal inhibitory concentration (IC50) in test [6] is 1.35 µM; in test [7], above 10 µM; in test [8], 0.089 µM; in [9] it was 2.54 µM; in test [10], 3.38 µM; in [11], 0.237 µM. This compound also yielded an IC50 in test [12] of 0.008 µM. Further, in test [3], the GI50 amounted to 1.73 µM.
